{"source": "patent US4683242A", "about": "“Transdermal treatment for pain and inflammation with 2-amino-3-aroylbenzeneacetic acids, salts and esters” (A. H. Robins Company, Incorporated, priority 1985, dated 1987)", "key": {"[1]": {"test_system": "Carrageenan-Induced Rat-Paw Edema", "assay": "Carrageenan Induced Rat-Paw Edema, dermal application (antiinflammatory)", "format": "in vivo", "conditions": "for Measurement of Edema at 3 hr.: 4 hr pretreatment; for Activity applied dermally compared with orally for a given dose: dermal vs oral, Formula B cream (pH=3.5) for Example 74", "procedure": "On the day prior to the test, an area of about 1\"×1\" of the lower back just above the tail of each of the rats was shaved and depilated with the commercially available hair removal preparation--Nair®. The rats were returned to the vivarium for feed and water.\nThe following day each rat was weighed and the volume of the left hind limb recorded. The rats were randomized into groups. Creams were applied in the following manner: 0.2 ml of the cream vehicle (control--no active agent) or formulation containing active ingredient was rubbed thoroughly onto the shaved depilated area of the rat's back for 10-15 seconds. The rats were immediately placed into plexiglass observation cylinders to restrict movement so as to prohibit accidental oral ingestion of the cream. The rats were then placed in a quiet room for 4 hr. Four hours after dosing, 0.1 ml of 1% carrageenan was injected into the left hind limb of each rat. The rats were returned to their observation cylinders and placed in the quiet room for an additional 3 hr time, after which the volume of the left hind limb was determined. The degree of edema was determined by subtracting limb volume at 0 time from the volume determined 3 hr after carrageenan injection. Two tail Dunnett's t-tests were used to compare the edema of the treated groups with the appropriate controls (Dunnet, C. W. (1955); J. AM. STAT. ASSOC. 50: 1096-1121).\nSeveral compounds of Formula I were mixed with the creams as prepared above so as to obtain cream containing 3.2 weight percent of each compound based on the weight of free acid or the ester. Rats in groups of 6 (randomized) were each treated with 0.2 ml of the cream containing the compound using the foregoing Carrageenan Induced Rat-Paw Edema test. The control rats were treated with cream having no test compound.\nIn addition, one preferred compound was tested further using the foregoing Carrageenan-Induced Rat-Paw Edema test at various concentrations in the cream of Formula B (pH=3.5)."}, "[2]": {"test_system": "Acetylcholine Induced Abdominal Constriction", "assay": "Acetylcholine Induced Abdominal Constriction Test in Mice, dermal application (analgetic)", "format": "in vivo, mouse", "conditions": "Formula A cream pH = 7.0, 4 hr pretreatment", "procedure": "Active agent was incorporated into the cream described under Formual A above (pH=7.0) at various concentrations calculated on a free acid basis.\nMice were prepared for the test by shaving an area measuring 3/4\"×3/4\" on their backs behind their heads and then depilating with Nair®, a cosmetic hair remover. The mice were given free access to feed and water prior to the experiment. On the following day the mice were weighed and fitted with a cardboard collar (13/4\"×13/4\" with a 1/2\" hole in the center) around the neck to prevent ingestion of applied compounds. The mice were randomized into groups of 10 using random tables generated by the IBM scrambler. A table of random permutations of blocks of order 3 was used to select the control and treated groups. The randomized mice were fed and placed in individual observation cages 1 hr prior to application of 50 microliters of the cream (by rubbing onto the skin for approximately 10 seconds).\nThe mice acting as controls were treated with cream having no test compound in it. Four hours after the application of the cream to the depilated area, acetylcholine bromide was injected intraperitoneally at 6 mg/kg (10 ml/kg in saline) with a plastic syringe with a 5/8 inch, 25-gauge disposable needle. Each mouse was immediately placed under an inverted 1 liter beaker and observed for 3 minutes for the presence of abdominal constriction. If no abdominal constriction was observed during this period, the response was considered blocked. ED50 and 95% confidence limits were determined by computer using a probit analysis method. Ten mice were used at each concentration, including controls.\nThe following results in Table 5 were obtained using the foregoing method using the cream of Formula A (pH=7.0) as described above having mixed therein the compound of Example 74 in comparison to controls wherein no test compound was present."}, "[3]": {"conditions": "quotation from Remington's, 16th Ed., page 1523; cited from earlier work"}, "[4]": {"conditions": "Table 3, Formula A cream, pH = 7.0, 0.2 ml, 3.2% by weight (free acid basis or ester), dermal"}, "[5]": {"conditions": "Table 3, Formula A cream, pH = 7.0, 0.2 ml, 3.2% by weight, dermal, p = <0.05"}, "[6]": {"conditions": "Table 4, first series, Formula B pH 3.5, 0.032 % (W/W), 0.37 mg/kg dermal"}, "[7]": {"conditions": "Table 4, second series, Formula B pH 3.5, 0.01 % (W/W), 0.10 mg/kg dermal"}, "[8]": {"conditions": "Table 4, second series, Formula B pH 3.5, 0.032 % (W/W), 0.32 mg/kg dermal"}, "[9]": {"conditions": "Table 4, second series, Formula B pH 3.5, 0.10 % (W/W), 0.94 mg/kg dermal"}}, "note": "Where a name gives a salt, the structure may show the parent alone.", "data": [{"smiles": "CCOC(=O)Cc1cccc(C(=O)c2ccccc2)c1N", "note": "[Example 5, 2-Amino-3-benzoylbenzeneacetic acid, ethyl ester]", "values": [{"measurement": "Measurement of Edema at 3 hr.", "setting": "[1]; [4]", "result": "0.27 ± 0.18 ml ± S.D."}, {"measurement": "% Change (edema vs control)", "setting": "[1]; [5]", "result": -71, "unit": "%"}]}, {"smiles": "CSc1ccc(C(=O)c2cc(F)cc(CC(=O)O)c2N)cc1", "note": "[Example 19, 2-Amino-3-[(4-methylthio)benzoyl]-5-fluorobenzeneacetic acid, sodium salt]", "values": [{"measurement": "Measurement of Edema at 3 hr.", "setting": "[1]; [4]", "result": "0.55 ± 0.14 ml ± S.D."}, {"measurement": "% Change (edema vs control)", "setting": "[1]; [5]", "result": -41, "unit": "%"}]}, {"smiles": "Cc1ccc(C(=O)c2cc(Cl)cc(CC(=O)O)c2N)cc1", "note": "[Example 55, 2-Amino-3-(4-methylbenzoyl)-5-chlorobenzeneacetic acid, sodium salt, hydrate [4:3]]", "values": [{"measurement": "Measurement of Edema at 3 hr.", "setting": "[1]; [4]", "result": "0.33 ± 0.20 ml ± S.D."}, {"measurement": "% Change (edema vs control)", "setting": "[1]; [5]", "result": -64, "unit": "%"}]}, {"smiles": "Nc1c(CC(=O)O)cccc1C(=O)c1ccc(I)cc1", "note": "[Example 57, 2-Amino-3-(4-iodobenzoyl)benzeneacetic acid, sodium salt, hydrate [4:1]]", "values": [{"measurement": "Measurement of Edema at 3 hr.", "setting": "[1]; [4]", "result": "0.40 ± 0.14 ml ± S.D."}, {"measurement": "% Change (edema vs control)", "setting": "[1]; [5]", "result": -57, "unit": "%"}]}, {"smiles": "CCOC(=O)Cc1cccc(C(=O)c2ccc(Br)cc2)c1N", "note": "[Example 69, 2-Amino-3-(4-bromobenzoyl)benzeneacetic acid, ethyl ester]", "values": [{"measurement": "Measurement of Edema at 3 hr.", "setting": "[1]; [4]", "result": "0.50 ± 0.20 ml ± S.D."}, {"measurement": "% Change (edema vs control)", "setting": "[1]; [5]", "result": -46, "unit": "%"}]}, {"smiles": "Nc1c(CC(=O)O)cccc1C(=O)c1ccc(Br)cc1", "note": "[Example 74, 2-Amino-3-(4-bromobenzoyl)benzeneacetic acid, sodium salt, sesquihydrate]", "values": [{"measurement": "Measurement of Edema at 3 hr.", "setting": "[1]; Table 3, Formula B cream, pH = 3.5, 0.2 ml, 3.2% by weight (free acid basis), dermal", "result": "0.48 ± 0.17 ml ± S.D."}, {"measurement": "Measurement of Edema at 3 hr.", "setting": "[1]; Table 3, Formula B cream, pH = 3.5, 0.2 ml, 3.2% by weight (free acid basis), dermal, sodium salt, sesquihydrate", "result": "0.38 ± 0.18 ml ± S.D."}, {"measurement": "3 Hr. Edema", "setting": "[1]; [6]", "result": "0.73 ± 0.33 ml ± S.D."}, {"measurement": "% Change (edema vs control)", "setting": "[1]; [6]", "result": -26, "unit": "%"}, {"measurement": "% Change (edema vs control)", "setting": "[1]; Table 4, first series, Formula B pH 3.5, 0.10 % (W/W), 1.1 mg/kg dermal", "result": -57, "unit": "%"}, {"measurement": "3 Hr. Edema", "setting": "[1]; Table 4, first series, Formula B pH 3.5, 0.10 % (W/W), 1.1 mg/kg dermal, p < 0.05", "result": "0.42 ± 0.21 ml ± S.D."}, {"measurement": "% Change (edema vs control)", "setting": "[1]; Table 4, first series, Formula B pH 3.5, 0.32 % (W/W), 3.7 mg/kg dermal", "result": -62, "unit": "%"}, {"measurement": "3 Hr. Edema", "setting": "[1]; Table 4, first series, Formula B pH 3.5, 0.32 % (W/W), 3.7 mg/kg dermal, p < 0.05", "result": "0.37 ± 0.19 ml ± S.D."}, {"measurement": "% Change (edema vs control)", "setting": "[1]; Table 4, first series, Formula B pH 3.5, 1.0 % (W/W), 11.9 mg/kg dermal", "result": -57, "unit": "%"}, {"measurement": "3 Hr. Edema", "setting": "[1]; Table 4, first series, Formula B pH 3.5, 1.0 % (W/W), 11.9 mg/kg dermal, p < 0.05", "result": "0.42 ± 0.10 ml ± S.D."}, {"measurement": "% Change (edema vs control)", "setting": "[1]; Table 4, first series, Formula B pH 3.5, 3.16 % (W/W), 36.5 mg/kg dermal", "result": -61, "unit": "%"}, {"measurement": "3 Hr. Edema", "setting": "[1]; Table 4, first series, Formula B pH 3.5, 3.16 % (W/W), 36.5 mg/kg dermal, p < 0.05", "result": "0.38 ± 0.18 ml ± S.D."}, {"measurement": "3 Hr. Edema", "setting": "[1]; [7]", "result": "0.88 ± 0.33 ml ± S.D."}, {"measurement": "% Change (edema vs control)", "setting": "[1]; [7]", "result": "+3%"}, {"measurement": "3 Hr. Edema", "setting": "[1]; [8]", "result": "1.05 ± 0.22 ml ± S.D."}, {"measurement": "% Change (edema vs control)", "setting": "[1]; [8]", "result": "+22%"}, {"measurement": "3 Hr. Edema", "setting": "[1]; [9]", "result": "0.55 ± 0.20 ml ± S.D."}, {"measurement": "% Change (edema vs control)", "setting": "[1]; [9]", "result": -36, "unit": "%"}, {"measurement": "% Change (edema vs control)", "setting": "[1]; Table 4, second series, Formula B pH 3.5, 0.32 % (W/W), 3.0 mg/kg dermal", "result": -52, "unit": "%"}, {"measurement": "3 Hr. Edema", "setting": "[1]; Table 4, second series, Formula B pH 3.5, 0.32 % (W/W), 3.0 mg/kg dermal, p < 0.05", "result": "0.42 ± 0.15 ml ± S.D."}, {"measurement": "% Change (edema vs control)", "setting": "[1]; Table 4, second series, Formula B pH 3.5, 1.0 % (W/W), 10.3 mg/kg dermal", "result": -57, "unit": "%"}, {"measurement": "3 Hr. Edema", "setting": "[1]; Table 4, second series, Formula B pH 3.5, 1.0 % (W/W), 10.3 mg/kg dermal, p < 0.05", "result": "0.37 ± 0.05 ml ± S.D."}, {"measurement": "% Change (edema vs control)", "setting": "[1]; Table 4, second series, Formula B pH 3.5, 3.16 % (W/W), 31.5 mg/kg dermal", "result": -44, "unit": "%"}, {"measurement": "3 Hr. Edema", "setting": "[1]; Table 4, second series, Formula B pH 3.5, 3.16 % (W/W), 31.5 mg/kg dermal, p < 0.05", "result": "0.48 ± 0.17 ml ± S.D."}, {"measurement": "Activity against edema compared with indomethacin applied dermally or orally", "setting": "[1]; comparative study, Example 74 applied dermally to rats", "result": "more active against the Edema than indomethacin applied dermally or orally"}, {"measurement": "Activity applied dermally compared with orally for a given dose", "setting": "[1]; comparative study", "result": "about as active applied dermally as it was orally for a given dose"}, {"measurement": "% Block", "setting": "[2]; 0.01 wt. % in 50 μl cream", "result": 0, "unit": "%"}, {"measurement": "% Block", "setting": "[2]; 0.032 wt. % in 50 μl cream", "result": 20, "unit": "%"}, {"measurement": "% Block", "setting": "[2]; 0.10 wt. % in 50 μl cream", "result": 60, "unit": "%"}, {"measurement": "% Block", "setting": "[2]; 0.32 wt. % in 50 μl cream", "result": 80, "unit": "%"}, {"measurement": "% Block", "setting": "[2]; 1.0 wt. % in 50 μl cream", "result": 80, "unit": "%"}, {"measurement": "% Block", "setting": "[2]; 3.16 wt. % in 50 μl cream", "result": 90, "unit": "%"}, {"measurement": "ED50 as % Concentration of Agent in Cream (95% Confidence Limits)", "setting": "[2]; probit analysis, 95% confidence limits (0.06-0.29)", "result": 0.128, "unit": "%"}]}, {"smiles": "COc1ccc2c(c1)c(CC(=O)O)c(C)n2C(=O)c1ccc(Cl)cc1", "note": "[indomethacin, reference compound]", "values": [{"measurement": "Activity applied dermally compared with orally for a given dose", "setting": "[1]; comparative study", "result": "markedly less active when applied dermally than when given orally for a given dose"}]}, {"smiles": "O=C([O-])c1ccccc1O.[Na+]", "note": "[sodium salicylate]", "values": [{"measurement": "Skin permeation compared with salicylic acid", "setting": "[3]", "result": "permeates poorly compared with salicylic acid"}]}]}
